# Source: US6545039B1 (Viatris GmbH & Co. KG, priority 1999, dated 2003)
# Assay: Tolerability of intravenous infusion rates in healthy subjects
# Format: in vivo, human
# Conditions: i.v., all infusion rates used (100, 200, 600 mg/min)
# Excerpt: The following results were obtained here. 1.
smiles,measurement,value
O=C(O)CCCCC1CCSS1 (stereo not drawn) [α-lipoic acid],tolerability of infusion rate,excellently tolerated
